Assay [1] concerns the target T1, WT N. gonorrhoeae gyrase (Neisseria gonorrhoeae, UniProt P48371).
T1 construct: His; made in house
The assay can be described thus: Gyrase-catalyzed DNA supercoiling assay, WT. The format is biochemical. The conditions noted are these: relaxed pBR322, 1.5 mM ATP, read-out: IC50, inhibition of DNA supercoiling. The method, then: All proteins were His-tagged. N. gonorrhoeae WT gyrase (GyrA, GyrB) and topoisomerase IV (ParC, ParE) subunits as well as mutant GyrA^D90N, GyrA^A92T, GyrA^S91F, and GyrA^S91F/D95G gyrase and ParC^D86N and ParC^S88P topoisomerase IV were prepared as described previously. , N. gonorrhoeae mutant GyrA^D95G gyrase and mutant ParC^S87N and ParC^E91G topoisomerase IV were generated using a QuickChange II XL site-directed mutagenesis kit (Agilent Technologies) with custom primers for the desired mutations. […] The identities of all constructs were confirmed by DNA sequencing, and all enzymes were stored at −80 °C. In all assays, N. gonorrhoeae gyrase or topoisomerase IV was used as a 1:1 GyrA:GyrB or ParC:ParE mixture, respectively, and the stated enzyme concentration reflects that of the holoenzyme (A2B2).
Samples were mixed with 2 μL of loading dye [60% sucrose, 10 mM Tris–HCl (pH 7.9), 0.5% bromophenol blue, and 0.5% xylene cyanol FF] and incubated at 45 °C for 2 min before being subjected to electrophoresis on 1% agarose gels in 100 mM Tris-borate (pH 8.3) and 2 mM EDTA. […] DNA bands were visualized with medium-range ultraviolet light and quantified using an Alpha Innotech digital imaging system (Protein Simple). DNA supercoiling was monitored by the conversion of relaxed to supercoiled plasmid.

For assay [2], the target named is T2, N. gonorrhoeae topoisomerase IV ParC^S88P (Neisseria gonorrhoeae, UniProt P48374, S88P).
T2 sequence (P48374 1-768 S88P): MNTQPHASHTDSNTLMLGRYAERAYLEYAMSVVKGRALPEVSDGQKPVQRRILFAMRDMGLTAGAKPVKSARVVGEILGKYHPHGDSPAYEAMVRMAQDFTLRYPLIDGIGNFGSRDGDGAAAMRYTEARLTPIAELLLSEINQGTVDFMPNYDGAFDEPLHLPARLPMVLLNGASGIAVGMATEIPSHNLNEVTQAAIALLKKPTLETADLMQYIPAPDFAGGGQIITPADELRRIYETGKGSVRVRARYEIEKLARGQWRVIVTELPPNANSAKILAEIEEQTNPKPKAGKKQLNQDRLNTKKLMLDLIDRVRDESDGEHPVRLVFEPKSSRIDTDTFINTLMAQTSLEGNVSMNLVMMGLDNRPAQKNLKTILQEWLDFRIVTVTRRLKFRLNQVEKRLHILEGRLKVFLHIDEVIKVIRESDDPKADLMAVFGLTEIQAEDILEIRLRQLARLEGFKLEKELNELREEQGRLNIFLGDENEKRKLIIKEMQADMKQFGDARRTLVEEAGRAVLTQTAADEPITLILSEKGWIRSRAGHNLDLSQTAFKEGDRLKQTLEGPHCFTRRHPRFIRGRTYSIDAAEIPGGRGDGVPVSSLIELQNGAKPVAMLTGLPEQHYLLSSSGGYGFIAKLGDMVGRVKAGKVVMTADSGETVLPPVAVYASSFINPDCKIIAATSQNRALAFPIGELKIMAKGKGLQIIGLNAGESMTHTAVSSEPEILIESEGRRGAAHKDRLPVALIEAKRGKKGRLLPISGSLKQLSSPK
The assay can be described thus: Topoisomerase IV-catalyzed DNA decatenation assay, ParC^S88P. The class given is biochemical. Further details: His; made in house. The method, then: All proteins were His-tagged. N. gonorrhoeae WT gyrase (GyrA, GyrB) and topoisomerase IV (ParC, ParE) subunits as well as mutant GyrA^D90N, GyrA^A92T, GyrA^S91F, and GyrA^S91F/D95G gyrase and ParC^D86N and ParC^S88P topoisomerase IV were prepared as described previously. , N. gonorrhoeae mutant GyrA^D95G gyrase and mutant ParC^S87N and ParC^E91G topoisomerase IV were generated using a QuickChange II XL site-directed mutagenesis kit (Agilent Technologies) with custom primers for the desired mutations. Mutant N. gonorrhoeae GyrA and ParC subunits were expressed and purified as described by Ashley et al. with the following modifications to optimize protein expression and lysis: (1) GyrA^D95G was expressed for 2.5 h and ParC^S87N and ParC^E91G were expressed for 3 h before harvesting, and (2) cells were lysed by sonication using a digital sonifier (Branson). The identities of all constructs were confirmed by DNA sequencing, and all enzymes were stored at −80 °C. In all assays, N. gonorrhoeae gyrase or topoisomerase IV was used as a 1:1 GyrA:GyrB or ParC:ParE mixture, respectively, and the stated enzyme concentration reflects that of the holoenzyme (A2B2). […]

The IC50 is the concentration that inhibits the measured activity by half.

T1 sequence (P48371 whole entry): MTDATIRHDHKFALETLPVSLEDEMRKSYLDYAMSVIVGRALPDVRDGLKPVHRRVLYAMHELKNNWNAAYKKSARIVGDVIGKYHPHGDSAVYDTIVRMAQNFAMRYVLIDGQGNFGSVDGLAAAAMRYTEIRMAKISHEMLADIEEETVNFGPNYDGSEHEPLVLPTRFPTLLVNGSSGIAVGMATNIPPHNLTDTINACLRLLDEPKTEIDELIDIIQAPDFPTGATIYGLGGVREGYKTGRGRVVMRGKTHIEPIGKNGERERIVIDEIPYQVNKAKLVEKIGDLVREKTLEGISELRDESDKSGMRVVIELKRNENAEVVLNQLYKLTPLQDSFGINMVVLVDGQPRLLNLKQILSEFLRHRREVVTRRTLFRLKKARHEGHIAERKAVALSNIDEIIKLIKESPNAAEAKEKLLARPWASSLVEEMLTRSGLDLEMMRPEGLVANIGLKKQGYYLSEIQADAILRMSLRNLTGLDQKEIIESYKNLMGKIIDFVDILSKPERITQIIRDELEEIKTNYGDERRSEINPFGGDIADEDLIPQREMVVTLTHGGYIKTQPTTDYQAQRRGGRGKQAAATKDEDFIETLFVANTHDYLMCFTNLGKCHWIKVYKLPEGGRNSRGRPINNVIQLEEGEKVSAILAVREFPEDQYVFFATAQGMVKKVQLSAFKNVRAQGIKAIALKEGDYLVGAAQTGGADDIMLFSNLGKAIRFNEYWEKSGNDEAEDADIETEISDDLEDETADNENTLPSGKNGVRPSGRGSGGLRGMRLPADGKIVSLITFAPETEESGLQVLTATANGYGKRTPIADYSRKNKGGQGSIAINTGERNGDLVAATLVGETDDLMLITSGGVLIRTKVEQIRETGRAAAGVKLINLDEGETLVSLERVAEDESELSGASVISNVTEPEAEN
T1 sequence (P22118 whole entry partner): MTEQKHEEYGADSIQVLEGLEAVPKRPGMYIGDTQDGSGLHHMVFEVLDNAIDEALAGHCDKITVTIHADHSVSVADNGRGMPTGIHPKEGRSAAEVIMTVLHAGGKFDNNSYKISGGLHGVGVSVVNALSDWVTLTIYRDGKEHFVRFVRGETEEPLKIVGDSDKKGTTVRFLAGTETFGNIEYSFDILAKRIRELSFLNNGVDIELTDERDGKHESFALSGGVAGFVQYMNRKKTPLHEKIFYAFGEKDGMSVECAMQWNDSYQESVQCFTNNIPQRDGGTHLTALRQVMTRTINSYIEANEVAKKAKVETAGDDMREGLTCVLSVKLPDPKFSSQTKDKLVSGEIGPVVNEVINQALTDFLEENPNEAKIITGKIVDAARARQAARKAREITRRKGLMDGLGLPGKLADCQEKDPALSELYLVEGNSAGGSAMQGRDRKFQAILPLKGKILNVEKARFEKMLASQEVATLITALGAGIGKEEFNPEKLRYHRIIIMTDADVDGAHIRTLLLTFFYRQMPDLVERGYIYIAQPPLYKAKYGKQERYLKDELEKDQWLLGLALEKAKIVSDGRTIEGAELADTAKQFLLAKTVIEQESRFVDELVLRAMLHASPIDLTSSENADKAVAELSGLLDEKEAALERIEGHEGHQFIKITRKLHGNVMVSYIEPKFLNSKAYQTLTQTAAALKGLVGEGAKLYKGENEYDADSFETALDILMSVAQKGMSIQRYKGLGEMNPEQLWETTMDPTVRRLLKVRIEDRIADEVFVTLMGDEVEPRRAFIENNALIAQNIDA

`O=c1ccc2ncc(=O)n3c2n1C[C@H]3CN1CCC(NCc2cc3c(cn2)OCCC3)CC1` [gepotidacin]: the IC50 in assay [1] is 5.1 ± 2.3 µM; in assay [2], 1200 nM. For the same molecule, in assay [2] (ParC S88P vs WT), the “effect of mutation on gepotidacin susceptibility in decatenation assays” value was “no effect”.

Values taken from article PMC12624743 (ACS Infectious Diseases, 2025).
